Results on one compound are retold here after PMC11547576, “Identification of a New Promising BAG3 Modulator Featuring the Imidazopyridine Scaffold” (Molecules, 2024).

For orientation: mortality means the share of the test organisms that died. Low readings indicate a weak lethal effect, high ones a strong lethal effect. A word on the IC50: it is the point on the concentration scale where inhibition reaches its midpoint. High values mean weaker potency in that assay, low ones greater potency in that assay.

One assay concerns HeLa cells. Nature of the assay: MTT cell viability assay on HeLa cells. Type of assay: cell-based. As to conditions: Homo sapiens, 72 h. As for the experimental part: Elevated expression levels of BAG3 are strongly associated with signaling pathways in various types of malignant cells; consequently, reducing the activity of this co-chaperone inhibits cell proliferation, triggers apoptosis, and induces cell cycle arrest. To assess the activity of compounds 10, 12, and 14, cytotoxicity assays were performed on HeLa cells, which were chosen for their tendency to overexpress BAG3 proteins. MTT assays were conducted by exposing HeLa cells to different concentrations of the compounds (25, 50, and 100 µM) for 72 h. Additionally, 10% DMSO was used as a positive control, while 0.1% DMSO served as a negative control. […] The next step involved the assessment of the cytotoxicity of the most promising candidate, 10, on healthy cells to determine its safety profile. To achieve this, MTT assays were conducted on HaCat cells over 72 h.
Human cervical carcinoma cell lines (HeLa, kindly donated by Prof. Ornella Moltedo, Department of Pharmacy, University of Salerno) and immortalized human keratinocytes (HaCaT) were cultured in a DMEM/high glucose medium. This medium was supplemented with 10% FBS (v/v), 2 mM/L glutamine, 100 U/mL penicillin, and […] streptomycin. The cells were maintained at 37 °C in a humidified atmosphere with 5% CO2. To ensure logarithmic growth, the cells were sub-cultured every 2 days.
Cell viability was assessed by measuring mitochondrial metabolic activity using a colorimetric assay, which involves the reduction of 3-[4,5-dimethylthiazol-2,5-diphenyl-2H-tetrazolium bromide (MTT) to purple formazan. Stock solutions of compounds 10, 12, and 14 (50 mM in DMSO) were stored at −20 °C in the dark and diluted just before being added to the sterile culture medium. Briefly, HeLa cells (3.5 × 10^3 cells/well) were seeded in triplicate in 96-well plates, and after 24 h, to allow for attachment, the cells were treated with various concentrations of the tested compounds (25, 50 and 100 μM), 0.1% (v/v) DMSO as a negative control, and 10% (v/v) DMSO as a positive control for 72 h. Following treatment, 20 μL of MTT (5 mg/mL in PBS) was added to each well, and the cells were incubated for an additional 3 h at 37 °C. The formazan crystals formed were then dissolved in 100 μL of a buffer containing 50% (v/v) N, N-dimethylformamide and 20% SDS (pH 4.5). Absorbance was measured at 570 nm using a Multiskan™ GO Microplate Spectrophotometer (Thermo Fisher Scientific, Waltham, MA, USA,). […] The IC50 values, representing the concentration causing 50% inhibition of cell survival, were calculated and compared to control cells treated with DMSO using GraphPad Prism 8.0 software through nonlinear regression of dose–response inhibition. Only for compound 10 was the IC50 also assessed on HaCaT cells (5.0 × 10^3 cells/well) after 72 h of treatment.

A further assay concerns caspase 3. As to the kind of experiment: Western blot of caspase 3 expression and cleavage. Type of assay: cell-based, human. Conditions: HeLa cells, 72 h, 50, 30 and 20 µM. As for the experimental part:
Furthermore, we investigated the expressions of caspases, key mediators of programmed cell death, in HeLa cells treated with compound 10 at the same concentrations used in the previous assays. […] To further confirm the pro-apoptotic mechanism induced by compound 10, Western blotting was performed to measure the expression and cleavage of caspase 3 [38, 39].
The HeLa cell line was seeded in 60 mm culture dishes (20 × 104) and treated with compound 10 (50, 30, 20 μM) for 72 h. After treatments, the cells were washed twice, detached with a scraper, and centrifuged for 10 min (400× g, 4 °C) to remove debris. Total proteins were extracted by lysis buffer (20 mM Tris-HCl pH 7.5, 150 mM NaCl, 1 mM Na2EDTA, 1 mM EGTA, 2% NP-40, 1% sodium deoxycholate, 1× protease, and phosphatase inhibitor cocktail) for 30 min. […] Protein concentration was determined by the Bradford assay using bovine serum albumin as standard. […]
After washes in PBS/Tween-20 0.1% the appropriate anti-rabbit or anti-mouse (1:5000, Pierce, Thermo Fisher Scientific) peroxidase-linked secondary antibody was added for 1 h at room temperature. Antigen–antibody complexes were detected through enhanced chemiluminescence using LAS 4000 (GE Healthcare, Chicago, IL, USA) and a densitometry analysis of the autoradiographs was performed by using the ImageJ program, version 1.47 [38, 39]. […]
On the technique in general: In western blotting, separated proteins are transferred to a membrane and probed.

On to `CC(C)Nc1c(-c2ccccc2Br)nc2ccc(Cl)cn12` [Compound 10, 2-(2-bromophenyl)-6-chloro-N-isopropylimidazo[1,2-a]pyridin-3-amine], for which the mortality at 25 µM in the assay with HeLa cells (25 µM) turned out to be 50%. The compound further came in with a mortality at 100 µM in the assay on HeLa cells (100 µM) of over 90%. In addition, the IC50 with HeLa cells (seven concentrations (1 to 100 µM)) was found to be 25.1 ± 2.67 µM. In the assay on caspase 3, the “expression of procaspase 3” value is on record as “increased expression of procaspase 3” and the “levels of cleaved caspase 3” value was “elevated levels of cleaved caspase 3 in a dose-dependent manner”.
